This is an account of results in patent publication US20240293558A1, “KRAS INHIBITOR CONJUGATES” (Erasca, Inc., priority 2021, published 2024).

Where only a bound is given, the exact number is not on record here.

One assay addresses KRAS G12D (Homo sapiens, UniProt P01116, G12D). The assay is described as follows: In-vitro RAS-RAF binding assay (RRB), HTRF/FRET. Particulars: Table 2, average of multiple runs of each compound; read-out: Inhibition of RAS-RAF Binding (in-vitro) KRAS (G12D) IC50. Type of assay: biochemical. Set-up: Biotinylated KRAS protein amino acids 1-169 (produced at Erasca); made in house. As for the experimental part: (§1) Biotinylated KRAS protein amino acids 1-169 (produced at […]) is labeled with streptavidin-terbium (lanthanide cryptate donor fluorophore) in assay buffer (50 mM HEPES, pH 7.5, 100 mM NaCl, 1 mM MgCl2, 1 mM DTT) at a final concentration of 30 nM. In a separate reaction mixture, 30 nM cRAF (RBD) (Abcam, Cambridge MA) is labeled with anti-GST d2 (acceptor fluorophore). Labeling reactions are incubated for 1 hour at room temperature. […] Following the compound incubation, SOS1 catalytic domain (produced at […]) and GTPgS are added to the reaction to initiate nucleotide exchange (60 minutes exchange reaction). Once in the GTP state KRAS will bind to cRAF. No binding will occur if KRAS remains in the GDP state. Compounds may block nucleotide exchange or may create a steric obstruction to cRAF-KRAS interaction by binding to the RAS effector site. […] A portion of this mixture is transferred to a white 384-well plate (20 uL per well in duplicate) and read on an HTRF compatible plate reader (ClarioSTAR). Fluorescent resonance energy transfer (FRET) is measured at equilibrium. FRET signal will be high if KRAS-cRAF binding occurs. FRET signal will be low if KRAS-cRAF binding is inhibited by the test compound. Table 2 represents the average of multiple runs of each compound.

In another assay the target is T1, KRAS (WT) (Homo sapiens, UniProt P01116).
T1 construct: Biotinylated KRAS protein amino acids 1-169 (produced at Erasca); made in house
The assay is described as follows: In-vitro RAS-RAF binding assay (RRB), HTRF/FRET. It counts as biochemical. The note with it: Table 2, average of multiple runs of each compound; read-out: Inhibition of RAS-RAF Binding (in-vitro) KRAS (WT) IC50. As for the experimental part: as §1

KRAS G12D, sequence (P01116 1-169 isoform P01116-2 G12D): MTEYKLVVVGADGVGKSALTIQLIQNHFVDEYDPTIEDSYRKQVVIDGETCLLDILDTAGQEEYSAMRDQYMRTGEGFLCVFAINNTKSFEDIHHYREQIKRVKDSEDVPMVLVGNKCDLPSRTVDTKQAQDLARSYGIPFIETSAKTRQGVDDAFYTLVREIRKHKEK
T1 sequence (P01116 1-169 isoform P01116-2): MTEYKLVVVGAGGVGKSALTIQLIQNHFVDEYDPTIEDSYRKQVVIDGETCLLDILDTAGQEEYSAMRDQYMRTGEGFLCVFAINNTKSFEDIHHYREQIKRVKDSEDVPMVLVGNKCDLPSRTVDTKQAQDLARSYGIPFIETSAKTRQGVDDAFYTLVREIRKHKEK

Turning to `C#Cc1c(F)ccc2cc(O)cc(-c3ncc4c(N5CC6CCC(C5)N6)nc(OC[C@@H]5CCCN5CCCOCCC(=O)N[C@H](C(=O)N5C[C@H](O)C[C@H]5C(=O)N[C@@H](C)c5ccc(-c6c(C)ccc(C)c6C)cc5)C(C)(C)C)nc4c3F)c12` [Example 56, (2S,4R)-1-((2S)-2-(3-(3-((2S)-2-(((4-(3,8-diazabicyclo[3.2.1]octan-3-yl)-7-(8-ethynyl-7-fluoro-3-hydroxynaphthalen-1-yl)-8-fluoropyrido[4,3-d]pyrimidin-2-yl)oxy)methyl)pyrrolidin-1-yl)propoxy)propanamido)-3,3-dimethylbutanoyl)-4-hydroxy-N-((S)-1-(2′,3′,6′-trimethyl-[1,1′-biphenyl]-4-yl)ethyl)pyrrolidine-2-carboxamide], the half-inhibitory concentration (IC50) stood at 9.36 nM at KRAS G12D and 65.7 nM at KRAS (WT).
The corresponding values for `C#Cc1c(F)ccc2cc(O)cc(-c3ncc4c(N5CC6CCC(C5)N6)nc(OC[C@@H]5CCCN5CCCOCCC(=O)N[C@H](C(=O)N5C[C@H](O)C[C@H]5C(=O)N[C@@H](C)c5ccc(-c6c(F)cccc6Cl)cc5)C(C)(C)C)nc4c3F)c12` [Example 42, (2S,4R)-1-((2S)-2-(3-(3-((2S)-2-(((4-(3,8-diazabicyclo[3.2.1]octan-3-yl)-7-(8-ethynyl-7-fluoro-3-hydroxynaphthalen-1-yl)-8-fluoropyrido[4,3-d]pyrimidin-2-yl)oxy)methyl)pyrrolidin-1-yl)propoxy)propanamido)-3,3-dimethylbutanoyl)-N-((S)-1-(2′-chloro-6′-fluoro-[1,1′-biphenyl]-4-yl)ethyl)-4-hydroxypyrrolidine-2-carboxamide] are 7.78 nM and 24.9 nM.
As for `C[C@H](NC(=O)[C@@H]1C[C@@H](O)CN1C(=O)[C@@H](NC(=O)CCCCN1CCC[C@H]1COc1nc(N2CC3CCC(C2)N3)c2cnc(-c3cc(O)cc4cccc(F)c34)c(F)c2n1)C(C)(C)C)c1ccc(-c2cccc(F)c2)cc1` [Example 86, (2S,4R)-1-((2S)-2-(5-((2S)-2-(((4-(3,8-diazabicyclo[3.2.1]octan-3-yl)-8-fluoro-7-(8-fluoro-3-hydroxynaphthalen-1-yl)pyrido[4,3-d]pyrimidin-2-yl)oxy)methyl)pyrrolidin-1-yl)pentanamido)-3,3-dimethylbutanoyl)-N-((S)-1-(3′-fluoro-[1,1′-biphenyl]-4-yl)ethyl)-4-hydroxypyrrolidine-2-carboxamide], the IC50 came to 9.05 nM on KRAS G12D and 568 nM on KRAS (WT).
On to `C#Cc1c(F)ccc2cc(O)cc(-c3ncc4c(N5CC6CCC(C5)N6)nc(OC[C@@H]5CCCN5CCCOCCC(=O)N[C@H](C(=O)N5C[C@H](O)C[C@H]5C(=O)N[C@@H](CO)c5ccc(-c6scnc6C)cc5)C(C)(C)C)nc4c3F)c12` [Example 29, (2S,4R)-1-((2S)-2-(3-(3-((2S)-2-(((4-(3,8-diazabicyclo[3.2.1]octan-3-yl)-7-(8-ethynyl-7-fluoro-3-hydroxynaphthalen-1-yl)-8-fluoropyrido[4,3-d]pyrimidin-2-yl)oxy)methyl)pyrrolidin-1-yl)propoxy)propanamido)-3,3-dimethylbutanoyl)-4-hydroxy-N—((R)-2-hydroxy-1-(4-(4-methylthiazol-5-yl)phenyl)ethyl)pyrrolidine-2-carboxamide], for which the IC50 on KRAS G12D came to 9.31 nM; on KRAS (WT), 27.9 nM.
On the same counts, the results for `C#Cc1c(F)ccc2cc(O)cc(-c3ncc4c(N5CC6CCC(C5)N6)nc(OCCN5CCC(F)(COc6cc([C@H](C(=O)N7C[C@H](O)C[C@H]7C(=O)N[C@@H](C)c7ccc(-c8c(F)cc(F)cc8F)cc7)C(C)C)on6)CC5)nc4c3F)c12` [Example 65, (2S,4R)-1-((2R)-2-(3-((1-(2-((4-(3,8-diazabicyclo[3.2.1]octan-3-yl)-7-(8-ethynyl-7-fluoro-3-hydroxynaphthalen-1-yl)-8-fluoropyrido[4,3-d]pyrimidin-2-yl)oxy)ethyl)-4-fluoropiperidin-4-yl)methoxy)isoxazol-5-yl)-3-methylbutanoyl)-4-hydroxy-N-((S)-1-(2′,4′,6′-trifluoro-[1,1′-biphenyl]-4-yl)ethyl)pyrrolidine-2-carboxamide] are 11.1 nM and greater than 10000 nM.
As for `C[C@H](NC(=O)[C@@H]1C[C@@H](O)CN1C(=O)[C@@H](NC(=O)CCCCN1CCC[C@H]1COc1nc(N2CC3CCC(C2)N3)c2cnc(-c3cc(O)cc4cccc(F)c34)c(F)c2n1)C(C)(C)C)c1ccc(-c2ccccc2)cc1` [Example 83, (2S,4R)-1-((2S)-2-(5-((2S)-2-(((4-(3,8-diazabicyclo[3.2.1]octan-3-yl)-8-fluoro-7-(8-fluoro-3-hydroxynaphthalen-1-yl)pyrido[4,3-d]pyrimidin-2-yl)oxy)methyl)pyrrolidin-1-yl)pentanamido)-3,3-dimethylbutanoyl)-N-((S)-1-([1,1′-biphenyl]-4-yl)ethyl)-4-hydroxypyrrolidine-2-carboxamide], the half-inhibitory concentration (IC50) was found to be 7.7 nM at KRAS G12D and 484 nM at KRAS (WT).
Turning to `C#Cc1c(F)ccc2cc(O)cc(-c3ncc4c(N5CC6CCC(C5)N6)nc(OC[C@@H]5CCCN5CCCOCCC(=O)N[C@H](C(=O)N5C[C@H](O)C[C@H]5C(=O)N[C@@H](C)c5ccc(-c6c(F)cccc6F)nc5)C(C)(C)C)nc4c3F)c12` [Example 31, (2S,4R)-1-((2S)-2-(3-(3-((2S)-2-(((4-(3,8-diazabicyclo[3.2.1]octan-3-yl)-7-(8-ethynyl-7-fluoro-3-hydroxynaphthalen-1-yl)-8-fluoropyrido[4,3-d]pyrimidin-2-yl)oxy)methyl)pyrrolidin-1-yl)propoxy)propanamido)-3,3-dimethylbutanoyl)-N—((S)-1-(6-(2,6-difluorophenyl)pyridin-3-yl)ethyl)-4-hydroxypyrrolidine-2-carboxamide], the values for the IC50 at KRAS G12D and at KRAS (WT) were 8.38 nM and 27.8 nM, respectively.
In the case of `C#Cc1c(F)ccc2cc(O)cc(-c3ncc4c(N5CC6CCC(C5)N6)nc(OC[C@@H]5CCCN5CCCOCCC(=O)N[C@H](C(=O)N5C[C@H](O)C[C@H]5C(=O)N[C@@H](C)c5ccc(-c6ccccc6C#N)cc5)C(C)(C)C)nc4c3F)c12` [Example 40, (2S,4R)-1-((2S)-2-(3-(3-((2S)-2-(((4-(3,8-diazabicyclo[3.2.1]octan-3-yl)-7-(8-ethynyl-7-fluoro-3-hydroxynaphthalen-1-yl)-8-fluoropyrido[4,3-d]pyrimidin-2-yl)oxy)methyl)pyrrolidin-1-yl)propoxy)propanamido)-3,3-dimethylbutanoyl)-N-((S)-1-(2′-cyano-[1,1′-biphenyl]-4-yl)ethyl)-4-hydroxypyrrolidine-2-carboxamide], the IC50 stood at 8.88 nM on KRAS G12D and 26.5 nM on KRAS (WT).
On the same counts, the results for `C#Cc1c(F)ccc2cc(O)cc(-c3ncc4c(N5CC6CCC(C5)N6)nc(OC[C@@H]5CCCN5CCCOCC(=O)N[C@H](C(=O)N5C[C@H](O)C[C@H]5C(=O)N[C@@H](C)c5ccc(-c6c(F)ccc(F)c6F)cc5)C(C)(C)C)nc4c3F)c12` [Example 53, (2S,4R)-1-((2S)-2-(2-(3-((2S)-2-(((4-(3,8-diazabicyclo[3.2.1]octan-3-yl)-7-(8-ethynyl-7-fluoro-3-hydroxynaphthalen-1-yl)-8-fluoropyrido[4,3-d]pyrimidin-2-yl)oxy)methyl)pyrrolidin-1-yl)propoxy)acetamido)-3,3-dimethylbutanoyl)-4-hydroxy-N-((S)-1-(2′,3′,6′-trifluoro-[1,1′-biphenyl]-4-yl)ethyl)pyrrolidine-2-carboxamide] are 8.82 nM and 123 nM.
The corresponding values for `Cc1ncsc1-c1ccc([C@H](C)NC(=O)[C@@H]2C[C@@H](O)CN2C(=O)[C@@H](NC(=O)CCCCN2CCC[C@H]2COc2nc(N3CC4CCC(C3)N4)c3cc(C(F)(F)F)c(-c4ccc(F)c5sc(N)c(C#N)c45)c(F)c3n2)C(C)(C)C)cc1` [Example 90, (2S,4R)-1-((2S)-2-(5-((2S)-2-(((7-(2-amino-3-cyano-7-fluorobenzo[b]thiophen-4-yl)-4-(3,8-diazabicyclo[3.2.1]octan-3-yl)-8-fluoro-6-(trifluoromethyl)quinazolin-2-yl)oxy)methyl)pyrrolidin-1-yl)pentanamido)-3,3-dimethylbutanoyl)-4-hydroxy-N-((S)-1-(4-(4-methylthiazol-5-yl)phenyl)ethyl)pyrrolidine-2-carboxamide] are 13 nM and 43 nM.
On to `C#Cc1c(F)ccc2cc(O)cc(-c3ncc4c(N5CC6CCC(C5)N6)nc(OC[C@@H]5CCCN5CCCOCCC(=O)N[C@H](C(=O)N5C[C@H](O)C[C@H]5C(=O)N[C@@H](C)c5ccc(-c6cc(F)cc(F)c6F)cc5)C(C)(C)C)nc4c3F)c12` [Example 58, (2S,4R)-1-((2S)-2-(3-(3-((2S)-2-(((4-(3,8-diazabicyclo[3.2.1]octan-3-yl)-7-(8-ethynyl-7-fluoro-3-hydroxynaphthalen-1-yl)-8-fluoropyrido[4,3-d]pyrimidin-2-yl)oxy)methyl)pyrrolidin-1-yl)propoxy)propanamido)-3,3-dimethylbutanoyl)-4-hydroxy-N-((S)-1-(2′,3′,5′-trifluoro-[1,1′-biphenyl]-4-yl)ethyl)pyrrolidine-2-carboxamide], for which the IC50 on KRAS G12D stood at 9.55 nM; at KRAS (WT) it was 65.9 nM.
